Assay [1] deals with T1, Adenosine receptor A2b (Homo sapiens) (UniProt P29275).
T1 sequence (whole entry): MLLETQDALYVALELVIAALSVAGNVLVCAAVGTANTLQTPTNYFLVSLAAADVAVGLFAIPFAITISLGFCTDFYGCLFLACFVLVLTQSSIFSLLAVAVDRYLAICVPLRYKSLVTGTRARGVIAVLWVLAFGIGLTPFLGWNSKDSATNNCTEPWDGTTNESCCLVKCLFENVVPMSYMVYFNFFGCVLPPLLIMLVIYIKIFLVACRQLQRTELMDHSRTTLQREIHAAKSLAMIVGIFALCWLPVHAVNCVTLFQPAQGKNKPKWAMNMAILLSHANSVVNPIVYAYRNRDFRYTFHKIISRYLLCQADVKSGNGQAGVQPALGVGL
Kind of assay: Displacement of [3H]DPCPX from recombinant human adenosine A2B receptor expressed in HEK293 cells at 0.01 uM.

The target in another assay is T2, Adenosine receptor A2b (Homo sapiens, UniProt P29275).
T2 sequence (P29275 whole entry): T1 sequence (whole entry)

In assay [2] the target is T3, Adenosine receptor A2a (Homo sapiens, UniProt P29274). Nature of the assay: Displacement of [3H]ZM-241385 from recombinant human adenosine A2A receptor expressed in HeLa cells at 0.1 uM. (In general: Loss of bound radioactivity is the signal in a displacement assay; it reports binding, not function.)
T3 sequence (P29274 whole entry): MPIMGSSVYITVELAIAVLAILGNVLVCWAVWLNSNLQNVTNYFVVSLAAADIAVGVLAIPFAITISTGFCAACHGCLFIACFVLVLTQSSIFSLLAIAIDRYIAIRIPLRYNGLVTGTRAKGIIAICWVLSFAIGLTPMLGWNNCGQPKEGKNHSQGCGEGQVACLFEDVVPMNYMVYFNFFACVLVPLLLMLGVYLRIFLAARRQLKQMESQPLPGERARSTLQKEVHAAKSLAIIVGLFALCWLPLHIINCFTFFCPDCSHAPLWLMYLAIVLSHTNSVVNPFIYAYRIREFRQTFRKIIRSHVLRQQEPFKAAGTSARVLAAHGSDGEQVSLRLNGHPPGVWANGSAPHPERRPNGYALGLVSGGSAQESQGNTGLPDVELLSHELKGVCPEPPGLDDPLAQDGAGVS
For assay [3], the target named is T1, Adenosine receptor A2b (Homo sapiens). Kind of assay: Displacement of [3H]DPCPX from recombinant human adenosine A2B receptor expressed in HEK293 cells at 0.1 uM. The class given is cell-based.
The target of assay [4] is T3, Adenosine receptor A2a.
Description: Binding affinity to recombinant human adenosine A2A receptor

By inhibition is commonly meant the change of the read-out against control, counted positive when it falls. Usually Ki stands for the equilibrium dissociation constant of an inhibitor or competing ligand from its target. A low value points to a stronger hold on the target. `CCCn1c(=O)c2[nH]c(-c3ccc(OCC(=O)Nc4cccc(F)c4)cc3)c(Cl)c2n(CCC)c1=O`: the results for the inhibition (in assay [1]; on Adenosine receptor A2a [2]; in assay [3]) were 6%, 20% and 46%, respectively. The Ki was 60.3 nM at Adenosine receptor A2b and 245 nM on Adenosine receptor A2a [4].
`COCCCn1c(=O)n(C)c(=O)c2[nH]c(-c3ccc(OCC(=O)NC4CCCC4)cc3)cc21`: the inhibition in assay [1] is 8%; on Adenosine receptor A2a [2], 0%; in assay [3], 16%. The Ki is 263 nM at Adenosine receptor A2b and 427 nM on Adenosine receptor A2a [4].
Taken in the same sequence, the figures for `CCCn1c(=O)c2[nH]c(-c3ccc(OCC(=O)Nc4ccc(O)cc4)cc3)cc2n(CCC)c1=O` were 24%, 51%, 79%, 34.7 nM and 56.2 nM.
Consider `CCCn1c(=O)c2[nH]c(-c3ccc(OCC(=O)NCc4ccncc4)cc3)cc2n(CCC)c1=O`, for which the inhibition in assay [1] stood at 21%; at Adenosine receptor A2a [2] it was 18%; in assay [3] it was 76%. The figures for the Ki on Adenosine receptor A2b and on Adenosine receptor A2a [4] were 28.2 nM and 302 nM, respectively.
In the same order, the values of `CCCn1c(=O)c2[nH]c(-c3ccc(OCC(=O)Nc4ncccc4O)cc3)cc2n(CCC)c1=O` are 37%, 32%, 82%, 20.9 nM and 324 nM.
In the same order, the values of `CCCn1c(=O)c2[nH]c(-c3ccc(OCC(=O)Nc4ccc(C(=O)NCCc5ccc(OC)cc5)cc4)cc3)cc2n(CCC)c1=O` are 21%, 13%, 74%, 12.3 nM and 427 nM.
In the case of `CCCn1c(=O)c2[nH]c(-c3ccc(OCC(=O)Nc4ccc(C5=NC(C)(C)CO5)cc4)cc3)cc2n(CCC)c1=O`, the values for the inhibition (in assay [1]; on Adenosine receptor A2a [2]; in assay [3]) were 11%, 25% and 67%, respectively. For the same compound, the Ki at Adenosine receptor A2b is 34.7 nM; on Adenosine receptor A2a [4], 91.2 nM.
`CCCn1c(=O)c2[nH]c(-c3ccc(OCC(=O)Nc4ccc(S(=O)(=O)c5ccccc5)cc4)cc3)cc2n(CCC)c1=O`: the inhibition amounted to 10% in assay [1], 27% at Adenosine receptor A2a [2] and 85% in assay [3]. In addition, the Ki is 17.4 nM at Adenosine receptor A2b and 282 nM at Adenosine receptor A2a [4].
Taken in the same sequence, the figures for `COc1cc(OCC(=O)Nc2ccc(F)cc2)ccc1-c1cc2c([nH]1)c(=O)n(C)c(=O)n2C` were 23%, 31%, 63%, 25.1 nM and 95.5 nM.
On to `Cn1c(=O)c2[nH]c(-c3cccc(OCC(=O)Nc4ccc(Br)cc4)c3)cc2n(C)c1=O`, for which the inhibition in assay [1] is 15%; on Adenosine receptor A2a [2], 45%; in assay [3] it was 73%. For the same compound, the Ki at Adenosine receptor A2b is 44.7 nM; at Adenosine receptor A2a [4] it was 67.6 nM.
Regarding `COc1cc(-c2cc3c([nH]2)c(=O)n(C)c(=O)n3C)ccc1OCC(=O)Nc1ccc(C#N)cc1`, the values for the inhibition (in assay [1]; on Adenosine receptor A2a [2]; in assay [3]) were 10%, 5% and 28%, respectively. Besides, the Ki on Adenosine receptor A2b was 214 nM; on Adenosine receptor A2a [4] it was 575 nM.
Take `CCCn1c(=O)c2[nH]c(-c3ccc(OC(C)C(=O)Nc4ccc(OC)cc4)cc3)cc2n(CCC)c1=O` (stereo not given): the figures for the inhibition (in assay [1]; at Adenosine receptor A2a [2]; in assay [3]) were 55%, 57% and 92%, respectively. The Ki at Adenosine receptor A2b is 5.13 nM; on Adenosine receptor A2a [4] it was 38.9 nM.
Taken in the same sequence, the figures for `CCCn1c(=O)c2[nH]c(-c3ccc(OC(CC)C(=O)Nc4ccccc4)cc3)cc2n(CCC)c1=O` (stereo not given) were 48%, 88%, 93%, 9.77 nM and 25.7 nM.
Taken in the same sequence, the figures for `CCCn1c(=O)c2[nH]c(-c3ccc(OCC(=O)Nc4ccccc4O)cc3)cc2n(CCC)c1=O` were 56%, 82%, 74%, 19.1 nM and 32.4 nM.
As for `CCCn1c(=O)c2[nH]c(-c3ccc(OCC(=O)Nc4ccc(Br)cc4)cc3)cc2n(CCC)c1=O`, the figures for the inhibition (in assay [1]; at Adenosine receptor A2a [2]; in assay [3]) were 66%, 54% and 97%, respectively. Further, the Ki is 2.19 nM at Adenosine receptor A2b and 30.9 nM on Adenosine receptor A2a [4].
Turning to `CCCn1c(=O)c2[nH]c(-c3ccc(OCC(=O)Nc4ccc(OC)cc4)cc3)cc2n(CCC)c1=O`, the inhibition stood at 22% in assay [1], 52% at Adenosine receptor A2a [2] and 80% in assay [3]. For the same compound, the Ki at Adenosine receptor A2b was 12 nM; on Adenosine receptor A2a [4] it was 20 nM.
Take `CCCn1c(=O)c2[nH]c(-c3ccc(OCC(=O)Nc4ccccc4Cl)cc3)c(Cl)c2n(CCC)c1=O`: the inhibition in assay [1] came out at 5%; at Adenosine receptor A2a [2], 23%; in assay [3] it was 44%. In addition, the Ki is 83.2 nM on Adenosine receptor A2b and 263 nM at Adenosine receptor A2a [4].
As to `CCCn1c(=O)c2[nH]c(-c3ccc(OC(CC)C(=O)Nc4ccc(Br)cc4)cc3)cc2n(CCC)c1=O` (stereo not given), the inhibition was 55% in assay [1], 82% on Adenosine receptor A2a [2] and 94% in assay [3]. In addition, the Ki is 6.03 nM on Adenosine receptor A2b and 31.6 nM on Adenosine receptor A2a [4].
On to `COc1cc(-c2cc3c([nH]2)c(=O)n(C)c(=O)n3C)ccc1OCC(=O)NCc1ccc(Cl)cc1`, for which the values for the inhibition (in assay [1]; at Adenosine receptor A2a [2]; in assay [3]) were 5%, 23% and 43%, respectively. In addition, the Ki at Adenosine receptor A2b was 186 nM; on Adenosine receptor A2a [4], 158 nM.
In the same order, the values of `CCCn1c(=O)c2[nH]c(-c3ccc(OCC(=O)Nc4ccc(CC(=O)O)cc4)cc3)cc2n(CCC)c1=O` are 14%, 28%, 87%, 33.9 nM and 224 nM.
`CCCn1c(=O)c2[nH]c(-c3ccc(OCC(=O)Nc4ccc(C(=O)OCC)cc4)cc3)cc2n(C)c1=O`: the inhibition stood at 12% in assay [1], 9% at Adenosine receptor A2a [2] and 88% in assay [3]. In addition, the Ki on Adenosine receptor A2b was 11.7 nM; at Adenosine receptor A2a [4] it was 2630 nM.
Take `CCCn1c(=O)c2[nH]c(-c3ccc(OCC(=O)Nc4ccc([N+](C)(C)C)cc4)cc3)cc2n(CCC)c1=O`: the inhibition came to 4% in assay [1], 8% at Adenosine receptor A2a [2] and 52% in assay [3]. For the same compound, the Ki was 91.2 nM on Adenosine receptor A2b and 708 nM at Adenosine receptor A2a [4].
In the same order, the values of `CCCn1c(=O)c2[nH]c(-c3ccc(OCC(=O)Nc4ccccc4)cc3)cc2n(C)c1=O` are 38%, 18%, 91%, 12.3 nM and 170 nM.
In the same order, the values of `CCCn1c(=O)c2[nH]c(-c3ccc(OCC(=O)Nc4ccc(C(C)=O)cc4)cc3)c(Cl)c2n(CCC)c1=O` are 8%, 21%, 43%, 52.5 nM and 85.1 nM.
In the same order, the values of `COc1cc(OCC(=O)Nc2ccccc2)ccc1-c1cc2c([nH]1)c(=O)n(C)c(=O)n2C` are 12%, 13%, 55%, 69.2 nM and 1050 nM.
Turning to `CCCn1c(=O)c2[nH]c(-c3ccc(OCC(=O)Nc4ccc(F)cc4)cc3)cc2n(CCC)c1=O`, the inhibition is 70% in assay [1], 62% on Adenosine receptor A2a [2] and 96% in assay [3]. Further, the Ki on Adenosine receptor A2b was 3.31 nM; on Adenosine receptor A2a [4], 12 nM.
Taken in the same sequence, the figures for `COCCCn1c(=O)n(C)c(=O)c2[nH]c(-c3ccc(OCC(=O)Nc4ccccc4)cc3)cc21` were 27%, 29%, 80%, 13.8 nM and 120 nM.
With `CCCn1c(=O)c2[nH]c(-c3ccc(OCC(=O)Nc4ccc(F)cc4)cc3)c(Br)c2n(CCC)c1=O`, the values for the inhibition (in assay [1]; at Adenosine receptor A2a [2]; in assay [3]) were 30%, 70% and 72%, respectively. The Ki is 12.6 nM at Adenosine receptor A2b and 20 nM on Adenosine receptor A2a [4].
In the same order, the values of `COc1cc(OCC(=O)NCc2ccc(Cl)cc2)ccc1-c1cc2c([nH]1)c(=O)n(C)c(=O)n2C` are 11%, 23%, 46%, 123 nM and 186 nM.
Turning to `CCn1c(=O)c2[nH]c(-c3ccc(OCC(=O)Nc4ccc(C#N)cc4)cc3)cc2n(CC)c1=O`, the inhibition in assay [1] was 20%; on Adenosine receptor A2a [2] it was 2%; in assay [3] it was 79%. Further, the Ki on Adenosine receptor A2b is 13.5 nM; on Adenosine receptor A2a [4], 120 nM.
Taken in the same sequence, the figures for `CCCn1c(=O)c2[nH]c(-c3ccc(OCC(=O)Nc4ccc(C=O)cc4)cc3)cc2n(CCC)c1=O` were 13%, 13%, 67%, 63.1 nM and 490 nM.

The values above are taken from ChEMBL document CHEMBL1148617, “Design, synthesis, and structure-activity relationships of 1-,3-,8-, and 9-substituted-9-deazaxanthines at the human A2B adenosine receptor” (J Med Chem, 2006).
